Laboratory results as given in patent publication US20050043245A1, “Non-mammalian GnRH analogs and uses thereof in the immune system” (priority 2003, published 2005).
Each block holds one molecule with its values, some of them ahead of it. Square brackets hold non-standard residues; d marks the D form. Ends that are not written are not given here. Peptide text beside a SMILES is read from it. pGlu = O=C1CC[C@@H](C(=O)O)N1; azaGly = NNC(=O)O

Experiments:
human leukocytes = experiment: Cytokine release from cultured human leukocytes; type: cell-based; settings: for effect on IL-4 production / effect on IL-8 production / effect on IL-10 production / effect on Interferon γ (INFγ) production: 2×10^−9 to 2×10^−7 M at 1, 3 and 20 hours; for activity on immune systems cytokines: compared among GnRH forms, varying doses
Description: Tissues of the immune system have been examined for the ability of their cells in vitro to respond to GnRH II (SEQ ID NO: 6) in culture medium. The media from cell cultures of immune system tissues have been examined for the release of cytokine into the medium after incubation with and without GnRH II analog (SEQ ID NO: 2).
Cell cultures of human leukocytes tissues have been prepared. […] The release of cytokines into the medium have been determined and compared for each form of GnRH studied.
We studied the effect of cytokines primarily produced by T cells. […] Concentrations of 2×10^−9 to 2×10^−7 M at 1, 3 and 20 hours were studied.
We have also studied cytokine produced primarily by B cells and macrophages. […] This is consistent with opposing activities followed by downregulation of the receptors with chronic high concentrations of the ligand.
Using our GnRH II analog (SEQ ID NO: 2) an inhibition of GM-CSF was clearly apparent after 20 hours of exposure.

immune system receptor = experiment: Immune system GnRH receptor binding; set-up: species or system human
From the text: The receptor binding activity of non-mammalian GnRH (SEQ ID NO: 6 and SEQ ID NO: 7) and non-mammalian GnRH analogs (SEQ ID NO: 2 and SEQ ID NO: 4) of the present invention will be compared. There is a human non-mammalian GnRH receptor which is distinct from the GnRH I receptor at the pituitary. […] They have also been designed to limit degradation by the immune system enzymes, present in lymphatic circulation. Binding activity of the newly synthesized non-mammalian GnRH analogs (SEQ ID NO: 2 and SEQ ID NO: 4) has been studied in plasma.
The newly synthesized non-mammalian GnRH analogs (SEQ ID NO: 2 and SEQ ID NO: 4) and other commercially available analogs have been used in receptor binding studies in plasma and enzyme stability study described here. On the basis of these studies, the most receptor potent and most enzyme-stable analogs have been chosen for further biopotency studies. GnRH receptors have been purified from the fractions from immune system tissues. The purification procedure for the GnRH receptor utilized ethanol precipatation of the receptor and not the GnRH. The remaining non-mammalian GnRH binding assays activity using ^125I-D-Arg-GnRH II-Aza-Gly-2^125 label and GnRH II have been performed. Receptors from two different tissues from the same type of immune system cells have been used to study each of these analogs. […]

[1] = Whole blood, plasma and serum stability of GnRH II analog; type: in vitro ADME
Description: FIG. 2 is a graph showing stability of GnRH II analog in blood and plasma. GnRH II Analog is stable throughout twenty-four hour of incubation in plasma and for the seventeen hours in serum following the initial serum formation.
The enzymatic degradation of the non-mammalian GnRH (SEQ ID NO: 6) and its analog (SEQ ID NO: 2) were studied using whole blood and plasma stability studies. A peptidase present in the immune system was used. Non-mammalian GnRH analogs (SEQ ID NO: 2) were designed with these specific criteria in mind. The stability of these non-mammalian GnRH analogs (SEQ ID NO: 2) to the enzymatic activity of the peptidase and in immune system cells were examined.
Each of these analogs was then studied for their ability to resist degradation over time of incubation with the immune system cells at 37° C. The reaction was stopped by freezing and the remaining GnRH I substrate, GnRH II substrate or non-mammalian analog was directly quantified by radioimmunoassay.
Studies using whole immune system cells were also performed. […] FIG. 2 is a graph showing stability of GnRH II in blood and plasma.

[2] = molecular target: T1, human pituitary GnRH receptor (Homo sapiens, UniProt P30968); settings: cited from earlier work
T1 sequence (P30968 1-328): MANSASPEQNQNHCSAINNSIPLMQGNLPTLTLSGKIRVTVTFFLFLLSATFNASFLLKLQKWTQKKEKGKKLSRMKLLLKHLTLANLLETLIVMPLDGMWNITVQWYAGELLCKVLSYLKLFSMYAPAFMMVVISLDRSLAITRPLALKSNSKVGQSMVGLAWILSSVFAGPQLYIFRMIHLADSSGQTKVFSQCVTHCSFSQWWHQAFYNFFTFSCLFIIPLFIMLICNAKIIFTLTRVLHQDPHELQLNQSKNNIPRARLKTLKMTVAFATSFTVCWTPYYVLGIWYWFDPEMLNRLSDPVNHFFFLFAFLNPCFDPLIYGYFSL

T cells = settings: effects only seen after twenty-four hours; cited from earlier work
placental GnRH receptor = settings: cited from earlier work
rhesus monkeys = settings: chronic administration, long-acting; cited from earlier work
human placental explants = settings: in vitro; cited from earlier work
[3] = after one hour of treatment, still observed at 3 and 20 hours

Molecule: CCNC(=O)[C@@H]1CCCN1C(=O)[C@H](CCCNC(=N)N)NC(=O)[C@H](CC(C)C)NC(=O)[C@@H](COC(C)(C)C)NC(=O)[C@H](Cc1ccc(O)cc1)NC(=O)[C@H](CO)NC(=O)[C@H](Cc1c[nH]c2ccccc12)NC(=O)[C@H](Cc1cnc[nH]1)NC(=O)[C@@H]1CCC(=O)N1 [Buserelin]
effect on IL-4 production (human leukocytes): no effects | effect on IL-8 production (human leukocytes): no effects | effect on IL-10 production (human leukocytes): no effects | effect on Interferon γ (INFγ) production (human leukocytes): no effects | effect on Interleukin 12 (IL-12) (human leukocytes; [3]): inhibited

affinity for the immune system receptor relative to GnRH I (immune system receptor): greater affinity | stability in serum ([1]; seventeen hours in serum following the initial serum formation): stable | stability in plasma ([1]; throughout twenty-four hour of incubation in plasma): stable
Molecule: N=C(N)NCCC[C@@H](NC(=O)[C@H](Cc1c[nH]cn1)NC(=O)[C@H](CO)NC(=O)[C@H](Cc1c[nH]c2ccccc12)NC(=O)[C@H](Cc1c[nH]cn1)NC(=O)[C@@H]1CCC(=O)N1)C(=O)N[C@@H](Cc1c[nH]c2ccccc12)C(=O)N[C@@H](Cc1ccc(O)cc1)C(=O)N1CCC[C@H]1C(=O)NNC(N)=O [GnRH II analog, D-Arg-GnRH II-aza-Gly-amide] ([pGlu]HWSH[dR]WYP[azaGly]-NH2)
effect on IL-4 production (human leukocytes): no effects | effect on IL-8 production (human leukocytes): no effects | effect on IL-10 production (human leukocytes): no effects | effect on Interferon γ (INFγ) production (human leukocytes): no effects | effect on GM-CSF release (human leukocytes; 20 hours): inhibition | effect on Interleukin 12 (IL-12) (human leukocytes; [3]): inhibited | activity on immune systems cytokines (human leukocytes): most active

Molecule: GnRH II: chicken II GnRH, natural non-mammalian GnRH isoform ([pGlu]HWSHGWYPG; ends and bridges not checked; listed as Gallus gallus)
affinity for the human pituitary GnRH receptor [2]: lesser affinity | T cells adhesion and homing (T cells): stimulates | effect on IL-4 production (human leukocytes): no effects | effect on IL-8 production (human leukocytes): no effects | effect on IL-10 production (human leukocytes): no effects | effect on Interferon γ (INFγ) production (human leukocytes): no effects | effect on Interleukin 12 (IL-12) (human leukocytes; at 3 hours): inhibition | activity on immune systems cytokines (human leukocytes): greater activity | effect on GM-CSF release (human leukocytes; high dose, 3 hrs): inhibits | effect on GM-CSF release (human leukocytes; low dose, 3 hrs): potent stimulant | affinity for the placental GnRH receptor (placental GnRH receptor): higher affinity | contraceptive effect (rhesus monkeys): effective contraceptive agent

Molecule: [N-Ac-Pro,D-p-Cl-Phe,D-Nal(2)]-GnRH I
hCG production/release (human placental explants): inhibition | placental prostanoids / basal prostaglandin production (human placental explants): inhibited | progesterone production (human placental explants): dramatically suppressed

affinity for the immune system receptor relative to GnRH I (immune system receptor): greater affinity
Molecule: salmon GnRH analog: salmon GnRH sequence modified at the 6 position using D-Arg and at the 10 position (ethylamide or aza-Gly^10-NH2)

Molecule: salmon GnRH: natural non-mammalian GnRH isoform of salmon ([pGlu]HWSYGWLPG; ends and bridges not checked)
affinity for the human pituitary GnRH receptor [2]: lesser affinity | affinity for the placental GnRH receptor (placental GnRH receptor): higher affinity
